How the values were obtained:
B16-F10 cells [1] = assay: Flow cytometry, surface level of other cytokine receptors (IL1R1, IL6R, GP130, IFNAR1); type: cell-based, murine
Method: Cells were dissociated from the wells with 0.25% trypsin (Gibco, 25200056). After rinsing with 0.5 ml PBS, each sample was stained with the LIVE/DEAD Fixable Aqua dead cell staining solution (Life Technologies, L34957) in 100 µl PBS (1:1000 dilution) for 15 min at 4 °C. After rinsing with 2 × 0.5 ml PBS, each sample was stained with the corresponding primary antibody-dye conjugates diluted in 100 µl Pharmingen stain buffer (BD Biosciences, #554657). After 1 h staining at 4 °C, the cells were rinsed with 2 × 2 ml Pharmingen stain buffer and fixed with 4.21% (w/w) formaldehyde (BD Biosciences, #554655). Cells were analyzed on LSRFortessa X-20 (BD Biosciences) with appropiate fluorescence compensation. The data were analyzed using FlowJo. Cells were gated based on FSC and SSC. Single cells were selected using FSC-A and FSC-H and viable cells were selected using LIVE/DEAD signal. Primary antibodies used were: H-2K^b/H-2D^b (FITC, Biolegend, #114606, 1:50 dilution), HLA-A,B,C (FITC, Biolegend, #311404, 1:100 dilution), mouse IFNGR1 (PE, Invitrogen, #12-1191-82, 1:50 dilution), human IFNGR1 (PE, Miltenyi, #130-125-851, 1:50 dilution), mouse IL1R1 (APC, Biolegend, #113509, 1:20 dilution), mouse IL6R (APC, Biolegend, #115812, 1:20 dilution), mouse IFNAR1 (APC, Biolegend, #127314, 1:20 dilution), and mouse GP130 (PE, Biolegend, #149404, 1:100 dilution).

B16-F10 cells [2] = assay: Gene expression profiling with NanoString PanCancer IO 360; type: cell-based, murine; conditions: Stub1-null B16-F10, 0.03 ng ml^−1 IFNγ, 6 h or 24 h
Method: After overnight incubation, the culture media were replaced with fresh media (DMEM + 10% FBS) supplemented with 0.03 ng ml^−1 of recombinant mouse IFNγ (R&D Systems, #485-MI-100). Total RNA from untreated cells (24 h) and IFNγ-treated cells (6 or 24 h) were extracted with RNeasy plus mini kit (Qiagen, 74134) according to manufacturer’s protocol. An input of 150 ng RNA from each sample was mixed with the NanoString reporter and capture probes (nCounter Mouse PanCancer IO 360, # XT-CSPS-MIO360-12), and incubated at 65 °C for 20 h. The hybridized samples were processed on the nCounter prep station, and the resulting cartridge was scanned by the nCounter digital analyzer using 555 fields of view. Raw count data were evaluated for quality control and normalized with 19 housekeeping genes using nSolver 4.0 software (Supplementary Table S3). Tlk2 was excluded from the housekeeping gene due to weak expression (RNA counts < 80). […] Weakly expressed genes, where the normalized RNA counts were consistently less than 80 in all samples, were excluded from fold change analysis, resulting in an evaluable set of 493 out of 750 genes (Supplementary Fig. 4a). As an overview, all 750 targeted genes were included in the scatter plot analysis (Supplementary Fig. 4b–d).

DU145 cells [3] = assay: Growth inhibition, CellTiter-Glo 2.0 (ATP); type: cell-based, human; conditions: DU145 (prostate), 10 ng ml^−1 each, 6 days
Method: (§1) Parental and CRISPR-edited tumour cells were seeded in a cell density of 1800 (DU145), 2000 (PC-3), or 10,000 (MCF7) per well in 96-well CellCarrier plate (PelkinElmer, #6005550) filled with 50 µl culture media + 10% FBS. After 20–24 h incubation, the cells were treated with 10 ng ml^−1 of recombinant human IFNγ (R&D Systems, 285-IF-100), 10 ng ml^−1 of recombinant human TNFα (R&D Systems, 210-TA-020/CF) or a combination of both, by adding an equal volume of the complete culture media containing the cytokines. After incubating for 6 days without media change, the CellTiter-Glo 2.0 (Promega, G9243) or CellTiter-Fluor (Promega, G6082) assay were performed according to manufacturer’ instructions. The luminescence or fluorescence (Ex: 380–400 nm, Em: 505 nm) were detected by Inifinte M1000 PRO (Tecan). For CellTiter-Fluor, triplicate wells without cells were included to determine background fluorescence and the signal average was used for background substraction.

PC-3 cells [4] = assay: Growth inhibition, CellTiter-Glo 2.0 (ATP); type: cell-based, human; conditions: PC-3 (prostate), 10 ng ml^−1 each, 6 days
Method: as §1

DU145 cells [5] = assay: Growth inhibition, CellTiter-Fluor (live-cell protease activity); type: cell-based, human; set-up: scale not given here; conditions: 10 ng ml-1 each, 6-day
Method: as §1

MCF7 cells = assay: as above; type: cell-based, human; set-up: scale not given here; conditions: 10 ng ml-1 each, 6-day
Method: as §1

PC-3 cells [6] = assay: as above; type: cell-based, human; set-up: scale not given here; conditions: 10 ng ml-1 each, 6-day
Method: as §1

## gStub1 #1 (guide GCATTGCTAAGAAGAAGCGC; chemistry not given here)
B16-F10 cells [1]; replicate 1
  Surface GP130 (Fig. 2d): 1.09
  Surface IFNAR1 (Fig. 2d): 0.74
  Surface IL1R1 (Fig. 2d): 0.96
  Surface IL6R (Fig. 2d): 0.93
B16-F10 cells [1]; replicate 2
  Surface GP130 (Fig. 2d): 1.26
  Surface IFNAR1 (Fig. 2d): 0.87
  Surface IL1R1 (Fig. 2d): 0.97
  Surface IL6R (Fig. 2d): 1.17
B16-F10 cells [1]; replicate 3
  Surface GP130 (Fig. 2d): 1.41
  Surface IFNAR1 (Fig. 2d): 1.30
  Surface IL1R1 (Fig. 2d): 1.05
  Surface IL6R (Fig. 2d): 1.24
B16-F10 cells [1]; replicate 4
  Surface GP130 (Fig. 2d): 1.20
  Surface IFNAR1 (Fig. 2d): 1.03
  Surface IL1R1 (Fig. 2d): 1.02
  Surface IL6R (Fig. 2d): 1.10

## IFNγ
B16-F10 cells [2]
  Induction of interferon-stimulated genes: enhanced response to IFNγ treatment
DU145 cells [3]
  Growth inhibition of PTPN2- or STUB1-null cells: sensitized PTPN2- or STUB1-null prostate tumour cells to growth inhibition
PC-3 cells [4]
  Growth inhibition of PTPN2- or STUB1-null cells: sensitized PTPN2- or STUB1-null prostate tumour cells to growth inhibition
DU145 cells [5]; DU145 PTPN2 sgRNA, replicate 1
  FC in live-cell protease activity relative to parental cells: -0.09
DU145 cells [5]; DU145 PTPN2 sgRNA, replicate 2
  FC in live-cell protease activity relative to parental cells: -0.0242
DU145 cells [5]; DU145 PTPN2 sgRNA, replicate 3
  FC in live-cell protease activity relative to parental cells: 0.13
DU145 cells [5]; DU145 Parental, replicate 1
  FC in live-cell protease activity relative to parental cells: -0.028
DU145 cells [5]; DU145 Parental, replicate 2
  FC in live-cell protease activity relative to parental cells: -0.0441
DU145 cells [5]; DU145 Parental, replicate 3
  FC in live-cell protease activity relative to parental cells: 0.07
DU145 cells [5]; DU145 STUB1 sgRNA, replicate 1
  FC in live-cell protease activity relative to parental cells: -0.68
DU145 cells [5]; DU145 STUB1 sgRNA, replicate 2
  FC in live-cell protease activity relative to parental cells: -0.65
DU145 cells [5]; DU145 STUB1 sgRNA, replicate 3
  FC in live-cell protease activity relative to parental cells: -0.52
DU145 cells [5]; DU145 control sgRNA, replicate 1
  FC in live-cell protease activity relative to parental cells: 0.0364
DU145 cells [5]; DU145 control sgRNA, replicate 2
  FC in live-cell protease activity relative to parental cells: 0.13
DU145 cells [5]; DU145 control sgRNA, replicate 3
  FC in live-cell protease activity relative to parental cells: 0.0663
MCF7 cells; MCF7 PTPN2 sgRNA, replicate 1
  FC in live-cell protease activity relative to parental cells: -0.23
MCF7 cells; MCF7 PTPN2 sgRNA, replicate 2
  FC in live-cell protease activity relative to parental cells: -0.32
MCF7 cells; MCF7 PTPN2 sgRNA, replicate 3
  FC in live-cell protease activity relative to parental cells: -0.34
MCF7 cells; MCF7 Parental, replicate 1
  FC in live-cell protease activity relative to parental cells: 0.0179
MCF7 cells; MCF7 Parental, replicate 2
  FC in live-cell protease activity relative to parental cells: 0.0179
MCF7 cells; MCF7 Parental, replicate 3
  FC in live-cell protease activity relative to parental cells: -0.0365
MCF7 cells; MCF7 STUB1 sgRNA, replicate 1
  FC in live-cell protease activity relative to parental cells: -1.31
MCF7 cells; MCF7 STUB1 sgRNA, replicate 2
  FC in live-cell protease activity relative to parental cells: -1.18
MCF7 cells; MCF7 STUB1 sgRNA, replicate 3
  FC in live-cell protease activity relative to parental cells: -1.16
MCF7 cells; MCF7 control sgRNA, replicate 1
  FC in live-cell protease activity relative to parental cells: -0.0449
MCF7 cells; MCF7 control sgRNA, replicate 2
  FC in live-cell protease activity relative to parental cells: 0.05
MCF7 cells; MCF7 control sgRNA, replicate 3
  FC in live-cell protease activity relative to parental cells: 0.01
PC-3 cells [6]; PC-3 PTPN2 sgRNA, replicate 1
  FC in live-cell protease activity relative to parental cells: -0.90
PC-3 cells [6]; PC-3 PTPN2 sgRNA, replicate 2
  FC in live-cell protease activity relative to parental cells: -0.39
PC-3 cells [6]; PC-3 PTPN2 sgRNA, replicate 3
  FC in live-cell protease activity relative to parental cells: -0.44
PC-3 cells [6]; PC-3 Parental, replicate 1
  FC in live-cell protease activity relative to parental cells: 0.02
PC-3 cells [6]; PC-3 Parental, replicate 2
  FC in live-cell protease activity relative to parental cells: -0.11
PC-3 cells [6]; PC-3 Parental, replicate 3
  FC in live-cell protease activity relative to parental cells: 0.09
PC-3 cells [6]; PC-3 STUB1 sgRNA, replicate 1
  FC in live-cell protease activity relative to parental cells: -0.57
PC-3 cells [6]; PC-3 STUB1 sgRNA, replicate 2
  FC in live-cell protease activity relative to parental cells: -0.73
PC-3 cells [6]; PC-3 STUB1 sgRNA, replicate 3
  FC in live-cell protease activity relative to parental cells: -0.72
PC-3 cells [6]; PC-3 control sgRNA, replicate 1
  FC in live-cell protease activity relative to parental cells: 0.0759
PC-3 cells [6]; PC-3 control sgRNA, replicate 2
  FC in live-cell protease activity relative to parental cells: -0.0157
PC-3 cells [6]; PC-3 control sgRNA, replicate 3
  FC in live-cell protease activity relative to parental cells: -0.15
